Measured values reported in patent US11780845B2 (Relay Therapeutics, Inc., priority 2019, dated 2023).

What follows are molecules tested against FGFR2 (Homo sapiens (Human), UniProt P21802) (assay: FGFR2 Biochemical Caliper Assay). Conditions: not given.
Procedure: Compounds of the present invention were also tested in a FGFR2 Biochemical Caliper Assay. Compounds were prepared in 10 mM DMSO solution and serially diluted into 11 concentrations by 3-fold dilution. […] 5 uL of ATP solution (100 uM) was added to start the reaction and the plate was incubated for 90 minutes, then 70 uL of stopping buffer (0.5M EDTA) was added to terminate the reaction. Each well was analyzed using EZ reader.

FGFR2, sequence (P21802 22-821): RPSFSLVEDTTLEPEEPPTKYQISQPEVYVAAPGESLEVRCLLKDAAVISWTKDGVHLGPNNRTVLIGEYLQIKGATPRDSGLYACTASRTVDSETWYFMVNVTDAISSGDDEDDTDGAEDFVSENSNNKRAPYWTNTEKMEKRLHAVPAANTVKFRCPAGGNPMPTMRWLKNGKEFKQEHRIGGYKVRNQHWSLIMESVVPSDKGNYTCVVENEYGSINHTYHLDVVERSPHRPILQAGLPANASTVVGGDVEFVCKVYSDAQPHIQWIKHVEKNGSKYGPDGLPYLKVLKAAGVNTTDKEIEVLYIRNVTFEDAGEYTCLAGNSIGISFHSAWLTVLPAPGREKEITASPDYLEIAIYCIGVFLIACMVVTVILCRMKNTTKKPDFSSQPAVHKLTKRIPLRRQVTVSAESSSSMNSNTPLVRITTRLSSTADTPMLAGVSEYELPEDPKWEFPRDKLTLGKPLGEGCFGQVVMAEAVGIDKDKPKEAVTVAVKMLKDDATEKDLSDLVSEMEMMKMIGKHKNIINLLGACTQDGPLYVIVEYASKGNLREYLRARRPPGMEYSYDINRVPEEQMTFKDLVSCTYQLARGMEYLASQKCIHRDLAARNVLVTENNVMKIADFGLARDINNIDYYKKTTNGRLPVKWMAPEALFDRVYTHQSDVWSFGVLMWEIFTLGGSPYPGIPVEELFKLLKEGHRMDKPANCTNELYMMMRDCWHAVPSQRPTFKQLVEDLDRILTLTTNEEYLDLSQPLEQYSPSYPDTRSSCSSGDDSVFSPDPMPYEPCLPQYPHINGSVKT

Compound	IC50 [nM]
C=CC(=O)N1CCC(c2c(-c3ccc(NC4CCCC4)cc3)c3c(N)ncnc3n2C)C1 (stereo not drawn) [Example 771]	1000 to 100000
C=C(C)C(=O)Nc1ccc(-c2c(-c3ccc(Oc4ccnc(C)n4)c(Cl)c3)c3c(N)ncnc3n2C)cc1 [Example 506]	250 to 1000
C=C(C)C(=O)Nc1ccc(-c2c(-c3ccc(C(=O)N4CC5CC5C4)cc3)c3c(N)ncnc3n2C)cc1 (stereo not drawn) [Example 237]	100 to 250
C=CC(=O)N1CCC(c2c(-c3ccc(CC(=O)N(C)C)cc3)c3c(N)ncnc3n2C)C1 (stereo not drawn) [Example 764]	1000 to 100000
C=CC(=O)N1CCC(n2cc(-c3c(-c4ccc(Oc5cc(C)ccn5)cc4)c4c(N)ncnc4n3C)cn2)CC1 [Example 631]	100 to 250
C=C(C)C(=O)Nc1ccc(-c2c(-c3ccc(C(=O)Nc4ncon4)cc3)c3c(N)ncnc3n2C)cc1 [Example 295]	1000 to 100000
C=C(C)C(=O)Nc1ccc(-c2c(-c3ccc(C(=O)N4CCCC5(CC5)C4)cc3)c3c(N)ncnc3n2C)cc1 [Example 264]	100 to 250
C=CC(=O)N1CCC(c2c(-c3ccc(OC4CNC4)cc3)c3c(N)ncnc3n2C)C1 (stereo not drawn) [Example 782]	1000 to 100000
C/C=C/C(=O)N1CCC(c2c(-c3ccc(Oc4cccc(C)n4)cc3)c3c(N)ncnc3n2C)C1 (stereo not drawn) [Example 692]	1000 to 100000

Results, then the molecule that gave them:

IC50 [nM]	Compound
100 to 250	C=CC(=O)N1CCC(n2cc(-c3c(-c4ccc(Oc5ccc(C)cn5)cc4)c4c(N)ncnc4n3C)cn2)CC1 [Example 636]
< 100	C=CC(=O)N1CCC(c2c(-c3ccc(NC(=O)NC4CC4)cc3)c3c(N)ncnc3n2C)C1 (stereo not drawn) [Example 755]
< 100	C=CC(=O)N1CCC(c2c(-c3ccc(Oc4cccc(C)n4)cc3)c3c(N)ncnc3n2C)CC1 [Example 647]
< 100	C=C(C)C(=O)Nc1ccc(-c2c(-c3ccc(C(=O)NCC4(F)COC4)cc3)c3c(N)ncnc3n2C)cc1 [Example 338]
< 100	C=C(C)C(=O)Nc1ccc(-c2c(-c3ccc(Oc4cccc(COC)n4)cc3)c3c(N)ncnc3n2C)cc1 [Example 417]
< 100	C=C(C)C(=O)Nc1ccc(-c2c(-c3ccc(Oc4cccc(OC)n4)cc3)c3c(N)ncnc3n2C)cc1 [Example 342]
< 100	C=C(C)C(=O)Nc1ccc(-c2c(-c3ccc(C(=O)N4CC5CCC(C5)C4)cc3)c3c(N)ncnc3n2C)cc1 [Example 299]
< 100	C=C(C)C(=O)Nc1ccc(-c2c(-c3ccc(C(=O)NCC(C)(C)F)cc3)c3c(N)ncnc3n2C)cc1 [Example 408]
< 100	C=CC(=O)N1CC=C(c2c(-c3ccc(Oc4ccccc4)cc3)c3c(N)ncnc3n2C)CC1 [Example 603]
< 100	C=C(C)C(=O)Nc1ccc(-c2c(-c3ccc(OC4CCCC4)cc3)c3c(N)ncnc3n2C)cc1 [Example 223]
< 100	C=C(C)C(=O)Nc1ccc(-c2c(-c3ccc(C(=O)N4CC5CCC4CC5)cc3)c3c(N)ncnc3n2C)cc1 [Example 262]
< 100	C=CC(=O)N1CCC(c2c(-c3ccc(Cn4cccn4)cc3)c3c(N)ncnc3n2C)C1 (stereo not drawn) [Example 772]

Each molecule was assayed on SNU16 cells (assay: SNU16 Cancer Cell Line Proliferation Assay). Conditions: Homo sapiens; SNU-16 cells.
Format: cell-based
Procedure, shortened: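 SNU16 cells were seeded, held 24 h at 37 degrees, then dosed with an 11-point 3-fold dilution series prepared from a 10 mM DMSO stock. After 96 h incubation, viability was read by CellTiter Glo luminescence.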

Compound	IC50 [nM]
C=CC(=O)N1CCC(c2c(-c3ccc(NC4CCCC4)cc3)c3c(N)ncnc3n2C)C1 (stereo not drawn) [Example 771]	1000 to 100000
C=C(C)C(=O)Nc1ccc(-c2c(-c3ccc(Oc4ccnc(C)n4)c(Cl)c3)c3c(N)ncnc3n2C)cc1 [Example 506]	250 to 1000
C=C(C)C(=O)Nc1ccc(-c2c(-c3ccc(C(=O)N4CC5CC5C4)cc3)c3c(N)ncnc3n2C)cc1 (stereo not drawn) [Example 237]	100 to 250
C=CC(=O)N1CCC(c2c(-c3ccc(CC(=O)N(C)C)cc3)c3c(N)ncnc3n2C)C1 (stereo not drawn) [Example 764]	1000 to 100000
C=CC(=O)N1CCC(n2cc(-c3c(-c4ccc(Oc5cc(C)ccn5)cc4)c4c(N)ncnc4n3C)cn2)CC1 [Example 631]	100 to 250
C=C(C)C(=O)Nc1ccc(-c2c(-c3ccc(C(=O)Nc4ncon4)cc3)c3c(N)ncnc3n2C)cc1 [Example 295]	250 to 1000
C=C(C)C(=O)Nc1ccc(-c2c(-c3ccc(C(=O)N4CCCC5(CC5)C4)cc3)c3c(N)ncnc3n2C)cc1 [Example 264]	≤ 100
C=CC(=O)N1CCC(c2c(-c3ccc(OC4CNC4)cc3)c3c(N)ncnc3n2C)C1 (stereo not drawn) [Example 782]	1000 to 100000
C/C=C/C(=O)N1CCC(c2c(-c3ccc(Oc4cccc(C)n4)cc3)c3c(N)ncnc3n2C)C1 (stereo not drawn) [Example 692]	1000 to 100000

Now from value to molecule:

IC50 [nM]	Compound
≤ 100	C=CC(=O)N1CCC(n2cc(-c3c(-c4ccc(Oc5ccc(C)cn5)cc4)c4c(N)ncnc4n3C)cn2)CC1 [Example 636]
1000 to 100000	C=CC(=O)N1CCC(c2c(-c3ccc(NC(=O)NC4CC4)cc3)c3c(N)ncnc3n2C)C1 (stereo not drawn) [Example 755]
≤ 100	C=CC(=O)N1CCC(c2c(-c3ccc(Oc4cccc(C)n4)cc3)c3c(N)ncnc3n2C)CC1 [Example 647]
≤ 100	C=C(C)C(=O)Nc1ccc(-c2c(-c3ccc(C(=O)NCC4(F)COC4)cc3)c3c(N)ncnc3n2C)cc1 [Example 338]
≤ 100	C=C(C)C(=O)Nc1ccc(-c2c(-c3ccc(Oc4cccc(COC)n4)cc3)c3c(N)ncnc3n2C)cc1 [Example 417]
≤ 100	C=C(C)C(=O)Nc1ccc(-c2c(-c3ccc(Oc4cccc(OC)n4)cc3)c3c(N)ncnc3n2C)cc1 [Example 342]
≤ 100	C=C(C)C(=O)Nc1ccc(-c2c(-c3ccc(C(=O)N4CC5CCC(C5)C4)cc3)c3c(N)ncnc3n2C)cc1 [Example 299]
≤ 100	C=C(C)C(=O)Nc1ccc(-c2c(-c3ccc(C(=O)NCC(C)(C)F)cc3)c3c(N)ncnc3n2C)cc1 [Example 408]
≤ 100	C=CC(=O)N1CC=C(c2c(-c3ccc(Oc4ccccc4)cc3)c3c(N)ncnc3n2C)CC1 [Example 603]
≤ 100	C=C(C)C(=O)Nc1ccc(-c2c(-c3ccc(OC4CCCC4)cc3)c3c(N)ncnc3n2C)cc1 [Example 223]
≤ 100	C=C(C)C(=O)Nc1ccc(-c2c(-c3ccc(C(=O)N4CC5CCC4CC5)cc3)c3c(N)ncnc3n2C)cc1 [Example 262]
≤ 100	C=CC(=O)N1CCC(c2c(-c3ccc(Cn4cccn4)cc3)c3c(N)ncnc3n2C)C1 (stereo not drawn) [Example 772]
